Assay [1] can be described thus: Selectivity ratio of IC50 for BACE2 to IC50 for BACE1.
The target in the next assay is T1, Beta-secretase 2 (Homo sapiens, UniProt Q9Y5Z0).
T1 sequence (Q9Y5Z0 whole entry): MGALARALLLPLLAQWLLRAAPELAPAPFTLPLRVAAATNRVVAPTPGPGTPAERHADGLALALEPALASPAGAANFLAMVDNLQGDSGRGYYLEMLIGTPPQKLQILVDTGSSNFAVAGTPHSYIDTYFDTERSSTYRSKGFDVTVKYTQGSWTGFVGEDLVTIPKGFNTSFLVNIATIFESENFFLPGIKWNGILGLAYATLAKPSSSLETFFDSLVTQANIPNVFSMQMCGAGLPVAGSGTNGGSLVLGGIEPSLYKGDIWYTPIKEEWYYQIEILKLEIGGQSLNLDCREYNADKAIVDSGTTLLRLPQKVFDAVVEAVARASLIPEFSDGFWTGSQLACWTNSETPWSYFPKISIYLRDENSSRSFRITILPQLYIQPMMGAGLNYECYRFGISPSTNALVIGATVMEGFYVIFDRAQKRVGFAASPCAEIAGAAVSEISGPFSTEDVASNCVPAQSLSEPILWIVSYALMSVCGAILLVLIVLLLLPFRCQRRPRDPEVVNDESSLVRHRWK
Nature of the assay: Inhibition of BACE2 by FRET assay.

In a further assay the target is Cathepsin D (Homo sapiens, UniProt P07339). Kind of assay: Inhibition of cathepsin D by FRET assay.
Sequence of Cathepsin D (P07339 65-162 limits assumed): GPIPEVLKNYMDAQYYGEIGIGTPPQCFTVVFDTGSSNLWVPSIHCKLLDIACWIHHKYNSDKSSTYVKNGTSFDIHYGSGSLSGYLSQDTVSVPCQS
Sequence of Cathepsin D (P07339 169-412 limits assumed): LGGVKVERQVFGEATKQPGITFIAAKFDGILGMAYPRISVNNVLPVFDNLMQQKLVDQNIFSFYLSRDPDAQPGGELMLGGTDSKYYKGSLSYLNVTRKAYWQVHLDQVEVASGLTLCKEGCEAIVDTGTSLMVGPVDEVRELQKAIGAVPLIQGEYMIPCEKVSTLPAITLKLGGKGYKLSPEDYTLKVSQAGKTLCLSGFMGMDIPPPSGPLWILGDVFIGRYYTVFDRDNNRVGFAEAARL
For another assay, the target named is Beta-secretase 1 (Homo sapiens, UniProt P56817). Nature of the assay: Inhibition of BACE1 by FRET assay.
Sequence of Beta-secretase 1 (P56817 whole entry): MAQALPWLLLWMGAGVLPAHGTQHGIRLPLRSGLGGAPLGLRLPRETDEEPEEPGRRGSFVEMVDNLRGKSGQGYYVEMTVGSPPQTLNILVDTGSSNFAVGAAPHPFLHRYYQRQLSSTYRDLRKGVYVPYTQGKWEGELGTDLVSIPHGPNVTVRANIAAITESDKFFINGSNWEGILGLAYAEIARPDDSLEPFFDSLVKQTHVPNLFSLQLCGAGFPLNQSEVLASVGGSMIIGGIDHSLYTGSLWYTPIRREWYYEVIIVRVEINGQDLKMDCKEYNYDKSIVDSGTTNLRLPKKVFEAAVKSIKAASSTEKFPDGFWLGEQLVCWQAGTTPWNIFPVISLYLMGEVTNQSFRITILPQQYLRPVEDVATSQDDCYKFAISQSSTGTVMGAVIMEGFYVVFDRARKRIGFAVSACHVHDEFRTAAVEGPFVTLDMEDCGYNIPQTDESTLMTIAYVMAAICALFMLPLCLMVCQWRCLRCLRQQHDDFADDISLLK

pIC50: −log10 of the molar value.

In the case of `CN1C(=O)C(c2ccccc2)(c2ccncc2)N=C1N` (configuration not stated), the Ratio IC50 in assay [1] was found to be 0.8.

The term pIC50 denotes the IC50 on a negative log10 scale, so that one unit is a factor of ten. Turning to `CN1C(=O)C(c2ccncc2)(c2cccc(-c3cccnc3F)c2)N=C1N` (configuration not stated), the pIC50 is 6.00 against Beta-secretase 2, 4.76 against Cathepsin D and 7.52 against Beta-secretase 1. Also, in assay [1], the Ratio IC50 was determined as 33.

`CN1C(=O)[C@@](c2ccncc2)(c2cccc(-c3cc(F)ccc3F)c2)N=C1N`: the pIC50 on Beta-secretase 2 is 7.00; against Cathepsin D, 5.26.

On to `CN1C(=O)C(c2ccncc2)(c2cccc(-c3cccc(F)c3F)c2)N=C1N` (configuration not stated), for which the pIC50 against Beta-secretase 2 is 6.89; at Cathepsin D, 4.88; against Beta-secretase 1, 7.40. Besides, the Ratio IC50 in assay [1] is 3.3.

For the compound `CN1C(=O)C(c2ccncc2)(c2cccc(-c3cccc(C#N)c3)c2)N=C1N` (configuration not stated), the pIC50 against Beta-secretase 2 was 7.40; at Cathepsin D, 4.62; at Beta-secretase 1 it was 7.40. Also, in assay [1], the Ratio IC50 came out at 1.

On to `CN1C(=O)[C@](c2ccncc2)(c2cccc(-c3cc(F)ccc3F)c2)N=C1N`, for which the pIC50 was 6.15 at Beta-secretase 2 and 4.58 at Cathepsin D.

Turning to `CN1C(=O)C(c2ccncc2)(c2cccc(-c3cccc(F)c3)c2)N=C1N` (configuration not stated), the values for the pIC50 against Beta-secretase 2, on Cathepsin D and against Beta-secretase 1 were 7.10, 4.68 and 7.30, respectively. Moreover, in assay [1], the Ratio IC50 is 1.6.

For `CN1C(=O)C(c2ccncc2)(c2cccc(-c3cc(F)ccc3F)c2)N=C1N` (racemic), the pIC50 against Beta-secretase 2 was 6.92; on Cathepsin D, 5.03.

In the case of `CN1C(=O)C(c2ccncc2)(c2cccc(-c3cccnc3)c2)N=C1N` (configuration not stated), in assay [1], the Ratio IC50 was 8.

For the compound `CN1C(=O)C(c2ccncc2)(c2cccc(-c3cc(F)cc(F)c3)c2)N=C1N` (configuration not stated), the pIC50 is 7.22 at Beta-secretase 2, 4.47 against Cathepsin D and 7.22 at Beta-secretase 1. Also, the Ratio IC50 in assay [1] worked out at 1.

On to `CN1C(=O)C(c2ccncc2)(c2cccc(-c3cccc(OC(F)(F)F)c3)c2)N=C1N` (configuration not stated), for which the pIC50 on Beta-secretase 2 is 6.85; at Cathepsin D, 4.85; at Beta-secretase 1, 6.60. Moreover, in assay [1], the Ratio IC50 stood at 0.6.

With `CN1C(=O)C(c2ccncc2)(c2cccc(-c3ccccc3)c2)N=C1N` (configuration not stated), in assay [1], the Ratio IC50 turned out to be 1.1.

With `COc1cccc(-c2cccc(C3(c4ccncc4)N=C(N)N(C)C3=O)c2)c1` (configuration not stated), the pIC50 was 7.70 against Beta-secretase 2, 4.91 at Cathepsin D and 7.52 on Beta-secretase 1. Moreover, the Ratio IC50 in assay [1] came to 0.7.

For `CN1C(=O)C(c2ccncc2)(c2cccc(-c3ccsc3)c2)N=C1N` (configuration not stated), the pIC50 against Beta-secretase 2 is 6.72; against Cathepsin D, 4.50.

Regarding `CN1C(=O)C(c2ccncc2)(c2cccc(-c3ccoc3)c2)N=C1N` (configuration not stated), the pIC50 against Beta-secretase 2 is 6.24; on Cathepsin D, 4.33.

At Beta-secretase 2, `CN1C(=O)C(c2ccncc2)(c2cccc(-c3cnccn3)c2)N=C1N` (configuration not stated) showed a pIC50 of 6.00.

The record behind these values is ChEMBL document CHEMBL1156304, “Pyridinyl aminohydantoins as small molecule BACE1 inhibitors” (Bioorg Med Chem Lett, 2010).
